Data taken from ChEMBL document CHEMBL1201862, “PubChem BioAssay data set” (2004).
Active and inactive are the calls of the source.

Tests used:
[1] = HGIII-sPLA2 enzyme inhibition potency – biochemical, QFRET, IC50, dose response (AID 743457);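 note: green fluorescence rise as the enzyme cleaves BODIPY PC-A2 in liposomes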
Protein RecA = molecular target: T1, Protein RecA (Mycobacterium tuberculosis, UniProt P9WHJ3); test: Fluorescence Cell-Free Homogeneous Dose Retest to Identify Inhibitors of RecA-Intein Splicing Activity. [Related pubchem assays (depositor defined):AID2097, AID2223, AID489010, AID492950]; format: functional
T1 sequence (P9WHJ3 whole entry): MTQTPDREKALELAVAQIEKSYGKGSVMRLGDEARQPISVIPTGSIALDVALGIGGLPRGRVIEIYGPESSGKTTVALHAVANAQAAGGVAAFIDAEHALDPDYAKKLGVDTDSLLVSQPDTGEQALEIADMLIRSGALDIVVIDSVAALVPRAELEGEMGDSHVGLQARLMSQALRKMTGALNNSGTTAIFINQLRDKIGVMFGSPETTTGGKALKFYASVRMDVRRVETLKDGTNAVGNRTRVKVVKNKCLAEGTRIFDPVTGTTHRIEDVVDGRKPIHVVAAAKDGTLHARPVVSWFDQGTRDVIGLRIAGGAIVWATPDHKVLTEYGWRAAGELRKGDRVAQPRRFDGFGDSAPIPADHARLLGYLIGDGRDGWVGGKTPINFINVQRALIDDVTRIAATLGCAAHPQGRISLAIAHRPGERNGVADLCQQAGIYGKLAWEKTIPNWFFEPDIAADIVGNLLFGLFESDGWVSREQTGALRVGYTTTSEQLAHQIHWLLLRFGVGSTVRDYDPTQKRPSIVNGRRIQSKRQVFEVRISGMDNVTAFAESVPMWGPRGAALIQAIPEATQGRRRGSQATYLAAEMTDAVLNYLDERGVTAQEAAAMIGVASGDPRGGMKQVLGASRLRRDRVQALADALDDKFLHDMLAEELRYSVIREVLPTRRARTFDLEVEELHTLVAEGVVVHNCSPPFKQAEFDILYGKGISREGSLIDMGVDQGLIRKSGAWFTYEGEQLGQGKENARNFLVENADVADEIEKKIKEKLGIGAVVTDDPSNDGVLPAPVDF

[2] = molecular target: T2, Zinc finger protein mex-5 (Caenorhabditis elegans, UniProt Q9XUB2); test: potency of MEX-5 RNA-binding blockers – biochemical, C. elegans, fluorescence polarization, dose response (AID 1960)
T2 sequence (Q9XUB2 whole entry): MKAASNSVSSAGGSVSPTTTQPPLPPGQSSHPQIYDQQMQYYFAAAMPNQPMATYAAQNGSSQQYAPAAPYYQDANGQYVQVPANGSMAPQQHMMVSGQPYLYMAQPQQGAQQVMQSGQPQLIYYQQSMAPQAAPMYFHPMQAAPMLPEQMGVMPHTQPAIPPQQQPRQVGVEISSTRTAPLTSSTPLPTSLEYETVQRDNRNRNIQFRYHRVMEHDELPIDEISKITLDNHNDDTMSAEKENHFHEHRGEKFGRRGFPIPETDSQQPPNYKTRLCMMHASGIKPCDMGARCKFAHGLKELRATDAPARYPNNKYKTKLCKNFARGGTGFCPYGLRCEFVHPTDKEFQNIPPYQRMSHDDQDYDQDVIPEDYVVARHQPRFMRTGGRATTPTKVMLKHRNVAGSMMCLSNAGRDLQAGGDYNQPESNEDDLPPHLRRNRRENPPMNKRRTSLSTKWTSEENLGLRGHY

[3] = NIH-3T3 fibroblast cytotoxicity, dose response, cytotoxicity control, cell-based, fluorescence, Alamar Blue, secondary assay (AID 2327); format: functional;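 note: NIH-3T3 mouse fibroblasts cultured with fluconazole at 8 µg/mL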
[4] = molecular target: T3, RNA-binding protein pos-1 (Caenorhabditis elegans, UniProt G5EF15); test: disruptors of C. elegans POS-1 RNA interaction – biochemical, fluorescence polarization, dose response (AID 1964);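 note: purified POS-1 fused to maltose binding protein made in E. coli; potency of compounds blocking POS-1 binding to fluorescent RNA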
T3 sequence (G5EF15 whole entry): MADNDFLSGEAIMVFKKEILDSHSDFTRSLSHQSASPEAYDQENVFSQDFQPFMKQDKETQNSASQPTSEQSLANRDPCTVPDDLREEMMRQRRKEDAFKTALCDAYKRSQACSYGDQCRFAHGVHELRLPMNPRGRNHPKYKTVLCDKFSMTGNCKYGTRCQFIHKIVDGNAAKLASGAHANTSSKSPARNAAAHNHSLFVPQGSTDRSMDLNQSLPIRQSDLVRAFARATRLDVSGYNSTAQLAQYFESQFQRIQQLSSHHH

[5] = fluconazole-exposed Candida albicans growth modulators – fluorescence, retest, confirmation (AID 2467); format: functional, cell-based
[6] = molecular target: T4, Replicative DNA helicase DnaB (Mycobacterium tuberculosis, UniProt P9WMR3); test: DnaB intein splicing inhibitors, dose response, biochemical, cell-free fluorescence (AID 449749); format: functional
T4 sequence (P9WMR3 whole entry): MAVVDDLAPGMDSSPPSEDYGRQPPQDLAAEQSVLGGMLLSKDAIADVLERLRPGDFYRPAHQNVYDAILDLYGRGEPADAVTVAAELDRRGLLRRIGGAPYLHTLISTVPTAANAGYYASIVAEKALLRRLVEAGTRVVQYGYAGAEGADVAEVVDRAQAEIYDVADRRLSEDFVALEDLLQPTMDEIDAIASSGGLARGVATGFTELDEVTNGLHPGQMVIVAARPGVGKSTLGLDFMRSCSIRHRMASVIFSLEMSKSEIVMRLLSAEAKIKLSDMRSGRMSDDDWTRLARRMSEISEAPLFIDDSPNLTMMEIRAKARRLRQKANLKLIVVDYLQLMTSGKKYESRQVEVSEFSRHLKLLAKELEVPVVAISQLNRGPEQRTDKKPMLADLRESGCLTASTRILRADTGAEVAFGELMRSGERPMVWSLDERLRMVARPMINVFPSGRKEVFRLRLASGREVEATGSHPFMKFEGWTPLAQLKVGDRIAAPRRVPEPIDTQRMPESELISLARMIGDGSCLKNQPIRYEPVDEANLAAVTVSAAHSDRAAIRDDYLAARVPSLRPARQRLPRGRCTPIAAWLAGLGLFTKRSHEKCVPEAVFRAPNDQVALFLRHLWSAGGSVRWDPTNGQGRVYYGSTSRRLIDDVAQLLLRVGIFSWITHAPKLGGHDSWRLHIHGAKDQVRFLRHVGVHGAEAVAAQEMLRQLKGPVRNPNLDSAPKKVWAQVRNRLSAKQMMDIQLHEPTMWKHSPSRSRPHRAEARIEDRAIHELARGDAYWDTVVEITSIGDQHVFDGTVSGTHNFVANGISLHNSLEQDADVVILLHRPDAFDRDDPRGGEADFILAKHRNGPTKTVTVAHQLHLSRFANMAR

Albumin = Albumin (Bos taurus, UniProt P02769); test: Counterscreen for inhibitors of T-cell receptor (TCR)-CD3 interaction: Fluorescence-based biochemical high throughput dose response assay to identify inhibitors of T-cell receptor (TCR)-CD3 interaction using a TAMRA-labeled BSA probe.; format: functional
Chain of Albumin (P02769 whole entry): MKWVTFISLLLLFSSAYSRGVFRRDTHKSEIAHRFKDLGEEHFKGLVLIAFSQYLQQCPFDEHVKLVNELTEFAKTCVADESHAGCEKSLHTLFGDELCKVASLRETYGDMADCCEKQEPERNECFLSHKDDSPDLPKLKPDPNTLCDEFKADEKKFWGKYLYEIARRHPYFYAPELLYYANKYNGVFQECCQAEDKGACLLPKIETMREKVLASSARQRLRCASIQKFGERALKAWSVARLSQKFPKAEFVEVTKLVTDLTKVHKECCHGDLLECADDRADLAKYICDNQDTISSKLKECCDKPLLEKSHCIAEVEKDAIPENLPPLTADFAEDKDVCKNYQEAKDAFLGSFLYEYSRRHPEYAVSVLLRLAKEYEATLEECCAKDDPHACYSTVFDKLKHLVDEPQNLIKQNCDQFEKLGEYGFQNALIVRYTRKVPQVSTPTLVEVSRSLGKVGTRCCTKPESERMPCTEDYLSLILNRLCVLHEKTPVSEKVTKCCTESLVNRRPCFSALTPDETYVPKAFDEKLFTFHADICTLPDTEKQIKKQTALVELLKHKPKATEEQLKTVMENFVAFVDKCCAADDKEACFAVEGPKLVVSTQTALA

[7] = blockers of bursicon-stimulated LGR2 cAMP reporter – cell-based, HEK293, CRE-luciferase reporter, cherry pick, set 2, dose response (AID 743343); format: functional;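 note: transfected cells were stimulated with diluted bursicon conditioned medium after compound addition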
Protein skinhead-1 = molecular target: T5, Protein skinhead-1 (Caenorhabditis elegans, UniProt P34707); format: functional
T5 sequence (P34707 whole entry): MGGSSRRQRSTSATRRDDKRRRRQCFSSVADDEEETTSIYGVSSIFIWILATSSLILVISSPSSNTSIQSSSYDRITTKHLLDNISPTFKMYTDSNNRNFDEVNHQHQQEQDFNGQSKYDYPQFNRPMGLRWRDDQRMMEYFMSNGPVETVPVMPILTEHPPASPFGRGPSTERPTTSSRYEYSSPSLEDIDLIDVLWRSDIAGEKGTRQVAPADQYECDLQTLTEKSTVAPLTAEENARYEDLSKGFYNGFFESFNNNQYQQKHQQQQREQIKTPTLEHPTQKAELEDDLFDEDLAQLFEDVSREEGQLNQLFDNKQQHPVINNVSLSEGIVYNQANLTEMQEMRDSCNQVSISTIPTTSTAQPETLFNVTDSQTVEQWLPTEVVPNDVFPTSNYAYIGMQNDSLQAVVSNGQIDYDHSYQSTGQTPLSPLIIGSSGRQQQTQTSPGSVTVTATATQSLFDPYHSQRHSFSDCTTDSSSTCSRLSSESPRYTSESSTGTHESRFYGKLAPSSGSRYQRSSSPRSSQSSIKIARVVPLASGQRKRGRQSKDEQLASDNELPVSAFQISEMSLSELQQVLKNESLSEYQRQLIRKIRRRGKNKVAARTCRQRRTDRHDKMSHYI

[8] = molecular target: Luciferin 4-monooxygenase (Photinus pyralis, UniProt P08659); test: inhibition of purified Photinus pyralis luciferase – biochemical, luminescence, dose response (AID 1891)
Chain of Luciferin 4-monooxygenase (P08659 whole entry): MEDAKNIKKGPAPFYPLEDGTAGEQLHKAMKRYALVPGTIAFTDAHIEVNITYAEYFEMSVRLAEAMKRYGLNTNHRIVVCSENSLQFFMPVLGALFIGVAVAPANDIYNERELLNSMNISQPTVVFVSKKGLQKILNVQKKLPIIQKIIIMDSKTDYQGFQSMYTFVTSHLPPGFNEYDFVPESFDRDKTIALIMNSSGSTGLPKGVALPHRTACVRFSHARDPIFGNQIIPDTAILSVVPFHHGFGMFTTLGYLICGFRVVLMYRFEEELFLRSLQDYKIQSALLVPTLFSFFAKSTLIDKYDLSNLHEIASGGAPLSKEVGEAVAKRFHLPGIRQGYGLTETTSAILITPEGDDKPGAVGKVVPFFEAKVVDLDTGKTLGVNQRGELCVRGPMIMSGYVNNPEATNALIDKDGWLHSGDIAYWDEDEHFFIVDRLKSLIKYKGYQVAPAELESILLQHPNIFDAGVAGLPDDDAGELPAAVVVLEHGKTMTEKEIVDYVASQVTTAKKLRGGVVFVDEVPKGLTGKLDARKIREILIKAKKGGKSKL

[9] = A549 cell cytotoxicity, dose response, cytotoxicity control, plate reader, cherry-pick, antagonist series (AID 743412); format: functional, cell-based
[10] = toxicity toward HepG2 liver cells – cell-based, plate reader, cherry-pick, antagonist series, cytotoxicity control, dose response (AID 743416); format: functional
[11] = Luminescence Cell-Based Dose Confirmation HTS to Identify Inhibitors of Platelet Dense Granule Release. [Related pubchem assays: 1663 (Primary HTS), 1678 (Summary of Project)]; format: functional
[12] = blockade of melanocortin 4 receptor signaling – cell-based, plate reader, cherry pick, counter-screen for LGR2 antagonist project, dose response (AID 743444); format: functional;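 note: transfected HEK 293 cells stimulated with alpha-MSH peptide; potency of inhibitors of the alpha-MSH evoked signal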
[13] = viability loss in HEK293 cells – cell-based, plate reader, cherry-picked samples, cytotoxicity control, dose response (AID 743446); format: functional
BJ [14] = test: BJ-TERT-LT-ST fibroblast viability loss – cell-based, RAS-independent, luminescence, dose response (AID 1935); format: functional; settings: Homo sapiens;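 note: BJ fibroblasts immortalized with TERT plus LT and ST oncogenes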
BJ [15] = test: BJ-TERT fibroblast viability loss – cell-based, RAS-independent, luminescence, dose response (AID 1933); format: functional; settings: Homo sapiens
BJ [16] = test: cells; format: functional, cell-based; settings: Homo sapiens
[17] = DRD fibroblast viability loss – cell-based, non-viral oncogenic, luminescence, dose response (AID 1934); format: functional; settings: Homo sapiens

Compound: O=C(NNC(=O)c1ccc2ccccc2c1O)c1ccccc1Cl
- IC50 [1]: > 122 µM (inactive)
- EC50 (Protein RecA): > 380 µM (inactive)
- EC50 [2]: 2.31 µM (inconclusive)
- EC50 [3]: > 160 µM (inactive)
- EC50 [4]: 15.4 µM (inconclusive)
- EC50 [5]: > 38 µM (not active)
- AC50 [6]: 30 µM (active)
- IC50 (Albumin): > 94.1 µM (inactive)

Compound: CCOc1ccc2nc(NC(=O)c3ccco3)sc2c1
- AC50 [7]: 8.15 µM (active)
- IC50 (Protein skinhead-1): > 100 µM (inactive)
- EC50 [8]: 383 nM (active)
- AC50 [9]: 35.4 µM (active)
- AC50 [10]: 32.6 µM (active)
- EC50 [11]: 3.13 µM (active)
- AC50 [12]: 7.74 µM (active)
- AC50 [13]: 20.6 µM (active)

Compound: O=C(Nc1ccc(-c2nc3ccccc3[nH]2)cc1)C1CCCO1 (configuration not stated)
- EC50 (BJ [14]): 22.9 µM (active)
- EC50 (BJ [15]): 8.39 µM (inconclusive)
- AC50 [7]: 6.14 µM (active)
- EC50 [8]: 1020 nM (active)
- EC50 (BJ [16]): 16.8 µM (inconclusive)
- AC50 [9]: 14.1 µM (active)
- AC50 [10]: 24.7 µM (active)
- EC50 [11]: 1.69 µM (active)
- EC50 [17]: 9.19 µM (inconclusive)
- AC50 [12]: 6.98 µM (active)
- AC50 [13]: 21 µM (active)
